For data set [1] the following is noted: cited from earlier work.
The conditions of data set [2]: in vivo; cited from earlier work.
For data set [3] the following is noted: in vivo; cited from earlier work. The source holds these as a separate data set.
The conditions of data set [4]: intravenously injected aqueous solutions; tests with animals; cited from earlier work.
The conditions of data set [5]: subcutaneous administration; tests with animals; cited from earlier work.
For data set [6] the following is noted: distinct first-pass effect; cited from earlier work.
A short description of data set [7]: Bioavailability and release of N-0923 from the depot composition per the invention. In kind it is in vivo. The source says:
The composition according to the invention is particularly preferred for the administration of N-0923 hydrochloride, and especially so in a formulation with crystalline N-0923 hydrochloride. The latter can be produced for instance as described in U.S. Pat. No. 4,564,628.

Like-named read-outs stand apart in the source and are kept apart here.

Turning to `N[C@@H](Cc1ccc(O)c(O)c1)C(=O)O` [levodopa], in data set [1], the “half-time in the plasma” value is 1 to 3 h.
Turning to proinsulin C-peptide, the half-time value entry in data set [2] is “about 30 minutes”.
Regarding `O=c1[nH]cc(F)c(=O)[nH]1` [5-fluorouracil], the half-time value in data set [3] was 10 to 20 min.
For `CCCN(CCc1cccs1)[C@H]1CCc2c(O)cccc2C1` [N-0923, S(−)-2-(N-propyl-N-2-thienylerhyl-amino)-5-hyroxytetralin], the half-time value in data set [4] is 52 min. For the same molecule, the half-time value in data set [5] was 60 to 70 min. For the same molecule, in data set [6], the “bioavailability after oral administration” value is listed as “about 0.5%”. For the same molecule, in data set [7] (depot composition), the “relationship of plasma agent levels to the dose introduced in the body” value is listed as “linear relationship” and the “time over which the active agent is released from the depots in the body in a therapeutically effective amount” value was “over 48 hours”. Also, in data set [7] (plasma, depot composition with N-0923, read-out: bioavailability of the pharmaceutical composition per the invention), the bioavailability (as a rule, the share of a dose that reaches the circulation, judged against a reference dose that is usually intravenous) is around 70%.

The values are drawn from patent publication US7309497B2, “Injectable pharmaceutical composition for systematic administration of pharmacologically active ingredients” (Schwarz Pharma AG, priority 2000, dated 2007).
